Assay results published in publication PMC5419589 (Bioorganic & medicinal chemistry, 2016).

Experiments:
[1] = Brain:plasma compound concentration measurements in mice; assay type: in vivo; conditions: following intraperitoneal injection in mice
[2] = Mouse oral pharmacokinetics; assay type: in vivo; conditions: mice
[3] = tested on: T. brucei brucei (strain TREU667); assay: Chronic; assay type: in vivo, mouse; conditions: for relapse with parasites in the blood / suppression of parasitemia during treatment phase: TREU667, 50 mg/kg twice a day oral day 21 to 34; for number of mice free of parasitemia/number of mice in the group: same dosing
[4] = tested on: T. brucei brucei strain BF427; assay: T. brucei growth inhibition assay; assay type: cell-based, Trypanosoma brucei brucei; conditions: for activity on T. brucei cells (in words): T. brucei EC50 assay; for fold enhancement of potency with respect to compound 1: vs 1, T. brucei EC50
[5] = severe side effects of treatment; cited from earlier work

Cl.NCCN(C(=O)c1ccc(Cl)cc1Cl)c1ccc(F)cc1 [Compound 1]
permeability into brain tissue (in words) [1]: excellent permeability into brain tissue

CC(C)c1ccc(COc2ccc(N(CCN)C(=O)c3cccnc3C(F)(F)F)cc2)cc1.Cl [Compound 73]
oral bioavailability (in words) [2]: orally bioavailable | relapse with parasites in the blood [3]: all mice relapsed | suppression of parasitemia during treatment phase [3]: complete suppression

Cl.NCCN(C(=O)c1ccc(F)cc1C(F)(F)F)c1ccc(OCc2ccc(Cl)cc2)cc1 [Compound 65, N-(2-Aminoethyl)-N-{4-[(4-chlorophenyl)methoxy]phenyl}-4-fluoro-2-(trifluoromethyl)benzamide hydrochloride]
activity on T. brucei cells (in words) [4]: single digit nanomolar EC50 values | relapse with parasites in the blood [3]: all mice relapsed | suppression of parasitemia during treatment phase [3]: partial suppression | number of mice free of parasitemia/number of mice in the group ([3]; day 35 post-infection, day 1 post-treatment): 4/4 | number of mice free of parasitemia/number of mice in the group ([3]; day 36 post-infection, day 2 post-treatment): 4/4 | number of mice free of parasitemia/number of mice in the group ([3]; day 37 post-infection, day 3 post-treatment): 2/4 | number of mice free of parasitemia/number of mice in the group ([3]; day 38 post-infection, day 4 post-treatment): 1/4 | number of mice free of parasitemia/number of mice in the group ([3]; day 39 post-infection, day 5 post-treatment): 1/4 | number of mice free of parasitemia/number of mice in the group ([3]; day 40 post-infection, day 6 post-treatment): 1/4 | number of mice free of parasitemia/number of mice in the group ([3]; day 41–42 post-infection, day 7–8 post-treatment): 1/4 | number of mice free of parasitemia/number of mice in the group ([3]; day 43–45 post-infection, day 9–11 post-treatment): 1/4 | number of mice free of parasitemia/number of mice in the group ([3]; day 46–49 post-infection, day 12–15 post-treatment): 0/4

Nc1nc(N)nc(Nc2ccc([As]3SCC(CO)S3)cc2)n1 (centres unmarked) [Melarsoprol]
fatalities in patients [5]: 3–10%

O=C(c1ccc(Cl)cc1Cl)N(CCN1CCOCC1)c1ccc(Cl)cc1 [Compound 48, 2,4-Dichloro-N-(4-chlorophenyl)-N-[2-(morpholin-4-yl)ethyl] benzamide]
activity on T. brucei cells (in words) [4]: inactive

CNCCN(C(=O)c1ccc(Cl)cc1Cl)c1ccc(Cl)cc1.Cl [Compound 58, 2,4-Dichloro-N-(4-chlorophenyl)-N-[2-(methylamino)ethyl] benzamide hydrochloride]
fold reduction of potency compared to compound 2 ([4]; vs 2, T. brucei EC50): 5 fold

COc1ccccc1C(=O)N(CCN)c1ccc(Cl)cc1.Cl [Compound 26, N-(2-Aminoethyl)-N-(4-chlorophenyl)-2-methoxybenzamide hydrochloride]
times less active compared to 23, 24 ([4]; vs 23, 24): at least 5 fold | times more potent than 4-methoxy (27) ([4]; vs 27): at least 4 fold

Cl.O=C(c1ccc(Cl)cc1Cl)N(c1ccc(Cl)cc1)c1cccnc1 [Compound 63, 2,4-Dichloro-N-(4-chlorophenyl)-N-(pyridin-3-yl)benzamide]
activity on T. brucei cells (in words) [4]: inactive

Cl.NCCN(C(=O)c1cc([N+](=O)[O-])ccc1Cl)c1ccc(Cl)cc1 [Compound 36, N-(2-Aminoethyl)-2-chloro-N-(4-chlorophenyl)-5-nitrobenzamide hydrochloride]
times less potent than 2-chloro analogue 23 ([4]; vs 23): 3 fold

Cl.NCCN(C(=O)c1ccc(Cl)cc1Cl)c1ccc(Cl)cc1Cl [Compound 12, N-(2-Aminoethyl)-2,4-dichloro-N-(2,4-dichlorophenyl)benzamide]
fold enhancement of potency with respect to compound 1 [4]: more than 2 fold

CN(C)CCN(C(=O)c1ccc(Cl)cc1Cl)c1ccc(Cl)cc1 [Compound 47, 2,4-Dichloro-N-(4-chlorophenyl)-N-[2-(dimethylamino)ethyl] benzamide]
activity on T. brucei cells (in words) [4]: eliminated anti-T. brucei activity

Cl.NCCN(C(=O)c1ccc(Cl)cc1Cl)c1ccc(Oc2cccc(Cl)c2)cc1 [Compound 17, N-(2-Aminoethyl)-2,4-dichloro-N-[4-(3-chlorophenoxy)phenyl] benzamide hydrochloride]
fold enhancement of potency with respect to compound 1 [4]: 4 fold
